According to patent US20190125786A1, “NOBLE GAS MODULATION OF IL-12” (NOBILIS THERAPEUTICS, INC., priority 2016, published 2019):

Columns and labels:
[1] = test system: monocytes (adherent peripheral blood mononuclear cells); experiment: Suppression of Alzheimer's peptide induced monocyte TNF-alpha production (ELISA); format: cell-based, healthy volunteers; settings: adherent cells cultured 1 hour or 2 hours in 30% xenon by volume; 1 ug/ml LPS and 10 μM Aβ (1-42) for 24 h; supernatant ELISA; FIG. 1
Method: 10 ml of heparinized blood was extracted from healthy volunteers and peripheral blood mononuclear cells were isolated by centrifugation over a ficoll gradient. Cells were subsequently washed in 2× volume phosphate buffered saline, and resuspended in RPMI media supplemented with 10% fetal calf serum. Cells were incubated at a concentration of 10 million cells per ml in 6-well plates in a volume of 2 ml per well. Cells were cultured for 24 hours at 37 Celsius in a fully humidified atmosphere with 5% CO2, subsequent to which non-adherent cells were removed by washing with PBS. Adherent cells were subsequently divided into […], one plate incubated at normoxic tissue culture, the second plate cultured for 1 hour in 30% xenon by volume, and the third tissue cultured for 2 hours in 30% volume. Cells were treated with control media, 1 ug/ml LPS and 10 μM of amyloid beta peptide Aβ (1-42) for 24 h. Supernatant was collected and assessed for TNF-alpha production by ELISA.

[2] = test system: CD1c dendritic cells; experiment: Suppression of Alzheimer's peptide induced dendritic cell IL-12 production (ELISA); format: cell-based, healthy volunteers; settings: monocyte-derived CD1c dendritic cells; 1 ug/ml LPS and 10 μM Aβ (1-42) for 24 h; supernatant ELISA; FIG. 2
Method: Monocytes from adherent PBMC were isolated as described in Example 1. Dendritic cells were generated by 7 day culture in IL-4 (10 ng/ml) and GM-CSF (20 ng/ml). Media was changed every two days. On day 7, purification of CD1c dendritic cells was performed and cells were cultured in control media, 1 ug/ml LPS and 10 μM of amyloid beta peptide Aβ (1-42) for 24 h. Supernatant was collected and assessed for IL-12 production by ELISA.

[Xe] [xenon gas, xenon]
induced TNF-alpha production [1]: suppression of induced TNF-alpha production was observed
induced IL-12 production [2]: suppression of induced IL-12 production was observed
